Test results reported in patent US20020114854A1, “Chinese herb medicine composition for cancer prophylaxis and therapy” (priority 2001, published 2002).

Assays:
Assay type in all cases: cell-based
[1] = test system: bladder cancer cell strain Bladder-3; assay: survival rate of bladder cancer cell strain Bladder-3 (CTAQ cell activity); parameters: dose or concentration left out as unconfirmed; conditions: treated over 48 hours
[2] = test system: cervical cancer cell strain CC-135; assay: survival rate of cervical cancer cell strain CC-135 (CTAQ cell activity); parameters: dose or concentration left out as unconfirmed; conditions: 10 p, 1.0 p or 0.1 p cis-Platine, treated 24 hours
[3] = test system: ovary cancer cell strain OC-117; assay: survival rate of ovary cancer cell strain OC-117 (CTAQ cell activity); conditions: 10 p (20 mg/ml) cis-Platine, treated over 48 hours
[4] = test system: esophagus cancer cell strain CE-81; assay: survival rate of esophagus cancer cell strain CE-81 (CTAQ cell activity, OD 492 nm); parameters: dose or concentration left out as unconfirmed; conditions: treated 96 hours
Description: Regarding to the cell strain culture in following embodiments, the culture solution of Ham's F 12/DMEM (v/v 1:1) including 10% (v/v) fetus cattle serum (FCS) and antibiotics (100 μg/ml streptomycin, 100 IU/ml penicillin, 1 μg/ml amphotericin) is used for cultivating all cell strains at 37° C., 5% CO2. When the cell grows to 80% full, the cell is washed down by Trypsin-EDTA to do the sub-culture. For the sub-culture, the cell is rinsed by HBSS first, washed down by Trypsin-EDTA, and centrifugated at 1000 rpm, 25° C. for 10 minutes. Sequentially, the cell is diluted by four times culture solution to be continuously cultivated. In addition, the sub-culture is done once per week. […]
The esophagus cancer cell strain, CE-81, is washed down by Trypsin-EDTA, centrifugated, and diluted to a cell concentration of 10^6 cells/ml by FCS-free culture solution. […] After different treating time, the cell strain CE-81 is added […] cell activity detecting agent CTAQTM, and the cell activity is detected at OD 492 nm by multiple frequency scanner. […] Thus, the survival rate of cell (%) is obtained via comparing the determined value difference between after and before adding CTAQ with the standard curve by intercalation.

[NH2][Pt]([NH2])([Cl])[Cl] [cis-Platine]
inhibition effect on Bladder-3 (in words) [1]: significant inhibition effect
survival rate of CC-135 [2]: about 50%
survival rate of OC-117 [3]: below 20%
survival rate of CE-81 [4]: about 60%
